We go through eleven compounds from BindingDB's records for doi:10.1016/0014-2999(79)90202-4 (1979).

The assay concerns the target 5-hydroxytryptamine receptor 7 (Rattus norvegicus, UniProt P32305).

Each structure is given as a SMILES string. pKi: −log10 of the molar value.

Sequence of 5-hydroxytryptamine receptor 7 (P32305 whole entry): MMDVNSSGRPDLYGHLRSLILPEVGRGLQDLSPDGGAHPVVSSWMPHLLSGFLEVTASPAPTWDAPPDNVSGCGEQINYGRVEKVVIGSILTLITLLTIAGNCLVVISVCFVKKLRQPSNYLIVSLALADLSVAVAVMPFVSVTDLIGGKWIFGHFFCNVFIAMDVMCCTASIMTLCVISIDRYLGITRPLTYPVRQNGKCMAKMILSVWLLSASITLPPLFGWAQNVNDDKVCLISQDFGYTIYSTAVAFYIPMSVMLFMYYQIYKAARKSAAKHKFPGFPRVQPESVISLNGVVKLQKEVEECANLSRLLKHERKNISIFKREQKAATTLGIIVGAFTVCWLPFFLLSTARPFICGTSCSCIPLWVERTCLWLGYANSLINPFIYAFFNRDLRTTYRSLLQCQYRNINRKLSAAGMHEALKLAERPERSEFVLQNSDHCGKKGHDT

Turning to `CNCC(O)c1ccc(O)c(O)c1` (stereo unspecified) [EPINEPHRINE], the pKi was 6.22.

As to `c1ccc(CC2=NCCN2)cc1` [Tolazoline], the negative logarithm of the Ki (pKi) is 5.70. The same measure for `c1cc2c(c(NC3=NCCN3)c1)CCCC2`: 6.54. Then `CC(COc1ccccc1)N(CCCl)Cc1ccccc1` (stereo unspecified), with 9.05. As for `c1ccc2c(c1)OCC(CN1CCCCC1)O2` (stereo unspecified) [Piperoxan], the pKi is 6.44. Then `CNC[C@H](O)c1cccc(O)c1` [PHENYLEPHRINE], with 5.85.

The compound `c1ccc2c(CC3=NCCN3)cccc2c1` [Naphazoline] gave a pKi of 7.37. The same measure for `Cc1cc(C(C)(C)C)c(O)c(C)c1CC1=NCCN1` [SMR000059324]: 7.64; for `O=C(NC1CCN(CCc2c[nH]c3ccccc23)CC1)c1ccccc1` [N-{1-[2-(1H-Indol-3-yl)-ethyl]-piperidin-4-yl}-benzamide(indoramin)]: 8.30.

The compound `COc1cc2nc(N3CCN(C(=O)c4ccco4)CC3)nc(N)c2cc1OC` [[3H]-Minipress] had a pKi of 10.00.

`COc1cccc(OC)c1OCCNCC1Oc2ccccc2OC1c1ccccc1` (stereo unspecified) [NSC_185453] gave a negative-log Ki (pKi) of 9.00.
